Key:
[1] = reference products of the interpretation scale; cited from earlier work
B16-F10 cells = test: Melanin assay test in B16-F10 cells; type: cell-based, murine; settings: for IC50: Mus musculus, B16-F10, 0.1 μM α-MSH stimulated, 72 hours treatment, read-out: Results activity B16-F10 IC50 (50% melanin synthesis inhibition); for Results activity B16-F10, percentage of activity on melanin synthesis: negative value indicates an inhibition
Description: This involves a test of measuring the synthesis of melanin by colorimetric assay on a murine melanoma cell line: the B16-F10 line. This test enables the depigmenting power of active ingredients to be evaluated.
The B16-F10 cells are cultured in 96-well plates in DMEM medium, supplemented with FCS (foetal calf serum), and incubated 24 hours at 37° C., 5% CO2. The cells are then stimulated with 0.1 μM α-MSH (to stimulate the synthesis of melanin, the stimulation observed is around 150%) and treated 72 hours with the active ingredients to be tested. Each concentration of active ingredient is tested at least in triplicate. The total melanin followed by the intracellular melanin dissolved in the lysis buffer are then assayed by absorbance reading at 405 nm. The total proteins are assayed in the lysate and the results are expressed in mg melanin/mg proteins. The percentage of activity is calculated as follows:
[formula] A negative value indicates an inhibition, whereas a positive value indicates an induction of the synthesis of melanin. General Experimental Conditions: • Equipment: • CO2 cell incubator (Heraeus), Oven, Centrifuge (Heraeus), Laminar air flow fume hood, 96-well clear bottomed plates—Falcon, sterile cones—Treff Lab, Polylabo, Mithras LB940 (Berthold Technologies)-154/MIPA/003 Biological Equipment: • B16-F10 cell line between P10 and P20 (murine melanocytes) (ATCC, CRL-6475) • Reagents • DMEM without phenol red (GIBCOBRL, 31053-028), 200 mM Glutamax-I Supplement (GIBCOBRL, 35050-038), D-PBS (GIBCOBRL, 14190-094), Foetal calf serum (Invitrogen, 10270-098), Trypsine-EDTA (GIBCOBRL, 25300-054), NaOH (Sigma, S8045-500G), DMSO (Sigma, 471267-1L), Nle, Phe—Melanocyte Stimulating Hormone (Sigma, M-8764), Melanin (Sigma, M-0418), BCA-COPPER (SIGMA, B9643 AND C2284), BSA (SIGMA, P0914) B) Test for the Study of the Antioxidant Capacity by Chemiluminescence (Photochem Analytik Jena) Principle: […]

[2] = system: Melanoderm-B (Black) reconstructed epidermis; test: Reconstructed epidermis depigmenting activity, Melanoderm-B; type: cell-based; settings: D3, D7, D10 and D14, 0.5% in Simplex formula
Text: (§1) The compounds of examples 8 and 21 were formulated at the concentration of 0.5% in a Simplex formula according to the example of composition A. Melanoderm-B (Black) or Melanoderm A (Asian) (MatTek, USA) reconstructed epidermis models were used. The reference compound chosen is kojic acid titrated to 2% in aqueous solution. The culture medium is changed every day. The products are applied by topical mode on the epidermis every two days. For the application, the epidermises are rinsed with PBS and the product to be tested is then applied. A preliminary toxicity study made it possible to determine that the dose to apply for each treatment is 25 μL. The tissues were observed on D3, D7, D10, D14 (Melanoderm B) or D6, D10, D14 and D21 (Melanoderm A) by 3 independent experts.

[3] = Antioxidant capacity by chemiluminescence (Photochem Analytik Jena); type: biochemical; settings: superoxide anion trapping
Description: This test is used to determine the antioxidant capacity of molecules. It is a method that generates free radicals by a photochemical signal. The intensity of the oxidation is 1000 times greater than those obtained under normal conditions.
The detection is performed by chemiluminescence. It enables the evaluation of hydrosoluble and liposoluble antioxidant molecules or extracts.
The results are expressed respectively in equivalent quantity of vitamin C or Trolox (6-hydroxy-2,5,7,8-tetramethylchroman-2-carboxylic acid). The sensitivity is of the order of the nanomole.
The antioxidant activity studied in this test represents the capacity to specifically trap the superoxide anions by chemiluminescence.
The quantified results are expressed in equivalent Trolox (standard), i.e. in “μg of product for 1 μg of Trolox”. This signifies that a quantity x of sample is required to obtain an activity equivalent to the activity detected for 1 μg of standard. It is an anti-oxidant power relative to a reference, which can be determined independently of the tested concentration.
The superoxide radical: O2^o^− is generated by a photochemical reaction: L+hv(UV)+O2→L*O2→L^o^++O2^o^− • L*: luminol in the excited state L^o+: luminol radical Detection of the Signal:
Part of the superoxide anions is quenched by anti-oxidants. The remaining free radicals are quantified by chemiluminescence. L^o^++O2^o^−→N2+[…]→AP^2−+hv(luminescence) AP*^2−: aminophthalate in the excited state

[4] = system: Melanoderm A (Asian) reconstructed epidermis; test: Reconstructed epidermis depigmenting activity, Melanoderm A; type: cell-based
Text: as §1, with “experts. The formula containing example 8 was also tested in a Melanoderm-A (Asian) model. The coloration of the epidermis is compared to that of the simplex control formula.” for “experts.”

Structure (SMILES) | IC50 (B16-F10 cells) [µM] | μg of sample for 1 μg of Trolox [3] | further results
O=C(O)CCCC[C@@H]1CCSS1 (racemic) [Lipoic acid] |  |  | Activity (scale for interpreting the results) [1]: Nil; μg sample for 1 μg of Trolox (scale for interpreting the results) [1]: Negative
Cc1cc(C(C)(C)C)c(O)c(C(C)(C)C)c1 [BHT] |  |  | Activity (scale for interpreting the results) [1]: Good; μg sample for 1 μg of Trolox (scale for interpreting the results) [1]: 3.01 to 50 μg sample for 1 μg of Trolox
N[C@@H](CS)C(=O)O [Cysteine] |  |  | Activity (scale for interpreting the results) [1]: Medium; μg sample for 1 μg of Trolox (scale for interpreting the results) [1]: 50.1 to 1000 μg sample for 1 μg of Trolox
CCCCCCCCCCCCCCCC(=O)Oc1ccc(C2C3=C(CC(C)(C)CC3=O)OC3=C2C(=O)CC(C)(C)C3)cc1OC [Example 8, 2-methoxy-4-(3,3,6,6-tetramethyl-1,8-dioxo-2,3,4,5,6,7,8,9-octahydro-1H-xanthen-9-yl)phenyl palmitate] |  |  | Melanin assay: reduction of melanin with respect to epidermises treated by the Simplex control formula ([4]; 0.5% in Simplex formula): 4.1 µg; Coloration of the epidermis compared to the simplex control formula ([4]; D6, D10, D14, D21, 0.5% in Simplex formula): macroscopic depigmenting effect; Coloration of the epidermis compared to negative control (water) [2]: macroscopic depigmenting effect
COc1cc(C2C3=C(CC(C)(C)CC3=O)OC3=C2C(=O)CC(C)(C)C3)cc(Cl)c1O [Example 16, 9-(3-chloro-4-hydroxy-5-methoxyphenyl)-3,3,6,6-tetramethyl-3,4,5,6,7,9-hexahydro-1H-xanthene-1,8(2H)-dione] |  | 5.20 μg of sample for 1 μg of Trolox | Results activity B16-F10, percentage of activity on melanin synthesis (B16-F10 cells; 20 μM): −31% to 20 μM
COc1cc(C2C3=C(CC(C)(C)CC3=O)OC3=C2C(=O)CC(C)(C)C3)cc(O)c1O [Example 19, 9-(3,4-dihydroxy-5-methoxyphenyl)-3,3,6,6-tetramethyl-3,4,5,6,7,9-hexahydro-1H-xanthene-1,8(2H)-dione] |  | 0.02 μg of sample for 1 μg of Trolox | Results activity B16-F10, percentage of activity on melanin synthesis (B16-F10 cells; 10 μM): −22% to 10 μM
CC(=O)Oc1ccc(C2C3=C(CC(c4ccccc4)CC3=O)OC3=C2C(=O)CC(c2ccccc2)C3)cc1OC(C)=O (stereo not drawn) [Example 26, 4-(1,8-dioxo-3.6-diphenyl-2,3,4,5,6,7,8,9-octahydro-1H-xanthen-9-yl)-1,2-phenylene diacetate] |  |  | Results activity B16-F10, percentage of activity on melanin synthesis (B16-F10 cells; 20 μM): −28% to 20 μM
O=C1O[C@H]([C@@H](O)CO)C(O)=C1O [Vitamin C] |  |  | Activity (scale for interpreting the results) [1]: Very good; μg sample for 1 μg of Trolox (scale for interpreting the results) [1]: 0.1 to 3.0 μg sample for 1 μg of Trolox

Second part, led by results:

IC50 (B16-F10 cells) [µM] | Structure (SMILES) | μg of sample for 1 μg of Trolox [3] | further results
69 | COc1cc(C2C3=C(CC(C)(C)CC3=O)OC3=C2C(=O)CC(C)(C)C3)ccc1O[C@@H]1OC(CO)[C@@H](O)C(O)C1O (stereo in doubt) [Example 21, 9-(3-methoxy-4-((3S,4 S,5S)-3,4,5-trihydroxy-6-(hydroxymethyl)tetrahydro-2H-pyran-2-yloxy)phenyl)-3,3,6,6-tetramethyl-3,4,5,6,7,9-hexahydro-1H-xanthene-1,8(2H)-dione] |  | Coloration of the epidermis compared to negative control (water) [2]: macroscopic depigmenting effect
50 | COc1cc(C2C3=C(CC(C)(C)CC3=O)OC3=C2C(=O)CC(C)(C)C3)ccc1O [Example 1, 9-(4-hydroxy-3-methoxyphenyl)-3,3,6,6-tetramethyl-3,4,5,6,7,9-hexahydro-1H-xanthene-1,8(2H)-dione] | 2.1 μg of sample for 1 μg of Trolox | 
20 | CC1(C)CC(=O)C2=C(C1)OC1=C(C(=O)CC(C)(C)C1)C2c1ccc(O)c(O)c1 [Example 2, 9-(3,4-dihydroxyphenyl)-3,3,6,6-tetramethyl-3,4,5,6,7,9-hexahydro-1H-xanthene-1,8(2H)-dione] | 0.03 μg of sample for 1 μg of Trolox | 
45 | COc1cc(C2C3=C(CC(C)(C)CC3=O)OC3=C2C(=O)CC(C)(C)C3)cc(OC)c1O [Example 3, 9-(4-hydroxy-3,5-dimethoxyphenyl)-3,3,6,6-tetramethyl-3,4,5,6,7,9-hexahydro-1H-xanthene-1,8(2H)-dione] | 0.72 μg of sample for 1 μg of Trolox | 
7 | O=C1CC(c2ccccc2)CC2=C1C(c1ccc(O)c(O)c1)C1=C(CC(c3ccccc3)CC1=O)O2 (stereo not drawn) [Example 4, 9-(3,4-dihydroxyphenyl)-3,6-diphenyl-3,4,5,6,7,9-hexahydro-1H-xanthene-1,8(2H)-dione] | 0.001 μg of sample for 1 μg of Trolox | 
2 | CC1(C)CC(=O)C2=C(C1)OC1=C(C(=O)CC(C)(C)C1)C2c1cc(C(C)(C)C)c(O)c(C(C)(C)C)c1 [Example 5, 9-(3,5-di-tert-butyl-4-hydroxyphenyl)-3,3,6,6-tetramethyl-3,4,5,6,7,9-hexahydro-1H-xanthene-1,8(2H)-dione] | 50 μg of sample for 1 μg of Trolox | 
6 | COc1cc(C2C3=C(CC(c4ccccc4)CC3=O)OC3=C2C(=O)CC(c2ccccc2)C3)ccc1O (stereo not drawn) [Example 6, 9-(4-hydroxy-3-methoxyphenyl)-3,6-diphenyl-3,4,5,6,7,9-hexahydro-1H-xanthene-1,8(2H)-dione] | 2.46 μg of sample for 1 μg of Trolox | 
37 | CC1(C)CC(=O)C2=C(C1)OC1=C(C(=O)CC(C)(C)C1)C2c1ccc(O)cc1 [Example 9, 9-(4-hydroxyphenyl)-3,3,6,6-tetramethyl-3,4,5,6,7,9-hexahydro-1H-xanthene-1,8(2H)-dione] | 7.39 μg of sample for 1 μg of Trolox | 
16 | COc1cc(C2C3=C(CC(C(C)C)CC3=O)OC3=C2C(=O)CC(C(C)C)C3)ccc1O (stereo not drawn) [Example 12, 9-(4-hydroxy-3-methoxyphenyl)-3,6-diisopropyl-3,4,5,6,7,9-hexahydro-1H-xanthene-1,8(2H)-dione] | 1.64 μg of sample for 1 μg of Trolox | 
19 | CCOc1cc(C2C3=C(CC(C)(C)CC3=O)OC3=C2C(=O)CC(C)(C)C3)ccc1O [Example 15, 9-(3-ethoxy-4-hydroxyphenyl)-3,3,6,6-tetramethyl-3,4,5,6,7,9-hexahydro-1H-xanthene-1,8(2H)-dione] | 1.79 μg of sample for 1 μg of Trolox | 

— patent publication US8906416B2, “Xanthenedione derivatives for the treatment of pigmentation and skin ageing disorders” (Pierre Fabre Dermo-Cosmetique, priority 2010, dated 2014)
